Here are results for one compound from patent publication US20100029479A1, “PESTICIDAL COMBINATIONS” (SYNGENTA CROP PROTECTION, INC., priority 2006, published 2010).

The subject of one test is Tilletia caries. The test is described as follows: Tilletia caries, number of ears infected (seed treatment, field plots). It is filed as in vivo. The following applies: Winter wheat/caphorn, Antraquinone 50, combination 50 + 2 + 5 + 3 gai/100 kg seed.
The next test concerns Ustilago. As to the kind of experiment: Ustilago, % pest incidence (seed treatment, field plots). The following applies: Antraquinone 50, combination 50 + 2 + 5 + 3 gai/100 kg seed. It is filed as in vivo.

Take `O=C1c2ccccc2C(=O)c2ccccc21` [Antraquinone]: the “Number of Ears Infected” value is reported as 14.3 (a) with Tilletia caries (Trial 1, plot 15 m^2, 253 DAP); 232.3 (a) with Tilletia caries (Trial 2, plot 14.25 m^2, 220 DAP); 84.3 (a) with Tilletia caries (Trial 3, plot 15 m^2, 212 DAP); 56 (a) with Tilletia caries (Trial 4, plot 12 m^2, 192 DAP). The “% Pest Incidence” value with Ustilago (Trial 1, Winter barley var LL09OH05, plot 15 m^2, 210 DAP) was 18.1 (a) %; in the test on Ustilago (Trial 2, Winter barley var LL05OH05, plot 14.4 m^2, 205 DAP), 5.6 (a) %; in the test on Ustilago (Trial 3, Winter barley, plot 14.4 m^2, 161 DAP), 22.2 (a) %.
